Test results: US10233188B2, “CDK2/4/6 inhibitors” (priority 2016, dated 2019)

Experiments:
CDK2/Cyclin E1 = CDK2/Cyclin E1 (Homo sapiens (Human), UniProt P24941); experiment: biochemical; details: CDK2_Ki (nM), phosphorylated CDK2/Cyclin E1, 150 μM ATP, Morrison tight-binding fit
Procedure: The assay was initiated with the addition of ATP, following a fifteen minutes pre-incubation of enzyme and inhibitor at room temperature in the reaction mixture. The reaction was stopped after 45 minutes at room temperature by the addition of 50 μL of 80 mM EDTA, pH 7.5.

CDK6/Cyclin D1 = CDK6/Cyclin D1 (Homo sapiens (Human), UniProt Q00534); experiment: biochemical; details: CDK6_Ki (nM), non-phosphorylated CDK6/Cyclin D1, 2 mM ATP, Morrison fit
CDK6/Cyclin D1, sequence (Q00534 whole entry): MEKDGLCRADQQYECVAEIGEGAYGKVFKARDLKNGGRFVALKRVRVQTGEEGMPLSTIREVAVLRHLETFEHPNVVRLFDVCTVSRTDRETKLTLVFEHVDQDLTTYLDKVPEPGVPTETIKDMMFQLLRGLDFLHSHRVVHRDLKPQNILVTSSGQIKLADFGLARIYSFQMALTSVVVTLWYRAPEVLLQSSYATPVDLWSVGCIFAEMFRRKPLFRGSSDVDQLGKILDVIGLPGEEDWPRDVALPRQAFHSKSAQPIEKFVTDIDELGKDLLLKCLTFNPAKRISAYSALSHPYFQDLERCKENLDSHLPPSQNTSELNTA
CDK6/Cyclin D1, sequence (P24385 whole entry partner): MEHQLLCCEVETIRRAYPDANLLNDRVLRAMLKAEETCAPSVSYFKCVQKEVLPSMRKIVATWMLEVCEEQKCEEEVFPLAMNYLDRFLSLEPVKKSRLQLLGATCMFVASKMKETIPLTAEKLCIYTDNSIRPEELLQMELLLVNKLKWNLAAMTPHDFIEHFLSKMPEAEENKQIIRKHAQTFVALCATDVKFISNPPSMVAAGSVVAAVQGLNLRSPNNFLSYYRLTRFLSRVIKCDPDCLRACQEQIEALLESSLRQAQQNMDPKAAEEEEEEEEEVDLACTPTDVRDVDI

Compound: C[C@@]1(O)CCC[C@H]1n1c(=O)ccc2cnc(NC3CCN(S(=O)(=O)CC4CC4)CC3)nc21 (single isomer, unassigned) [Example 90, (−)-2-({1-[(cyclopropylmethyl)sulfonyl]piperidin-4-yl}amino)-8-[(1R*,2R*)-2-hydroxy-2-methylcyclopentyl]pyrido[2,3-d]pyrimidin-7(8H)-one]
- Ki (CDK2/Cyclin E1): 0.25 nM
- Ki (CDK6/Cyclin D1): 0.88 nM

Compound: C[C@H]1[C@@H](O)CC[C@@H]1n1c(=O)ccc2cnc(NC3CCN(S(C)(=O)=O)CC3)nc21 (single isomer, unassigned) [Example 202, (+)-8-[(1R*,2S*,3R*)-3-hydroxy-2-methylcyclopentyl]-2-{[1-(methylsulfonyl)piperidin-4-yl]amino}pyrido[2,3-d]pyrimidin-7(8H)-one]
- Ki (CDK2/Cyclin E1): 0.8 nM
- Ki (CDK6/Cyclin D1): 2.44 nM

Compound: Cc1cc2cnc(NC3CCN(S(C)(=O)=O)CC3)nc2n([C@H]2COC[C@]2(C)O)c1=O (single isomer, unassigned) [Example 198, (+)-8-[(3R*,4S*)-4-hydroxy-4-methyltetrahydrofuran-3-yl]-6-methyl-2-{[1-(methylsulfonyl)piperidin-4-yl]amino}pyrido[2,3-d]pyrimidin-7(8H)-one]
- Ki (CDK2/Cyclin E1): 26.9 nM
- Ki (CDK6/Cyclin D1): 31 nM

Compound: C[C@H]1[C@@H](O)CC[C@@H]1n1c(=O)c(C(F)F)cc2cnc(NC3CCN(S(C)(=O)=O)CC3)nc21 (single isomer, unassigned) [Example 205, (+)-6-(difluoromethyl)-8-[(1 R*,2S*,3R*)-3-hydroxy-2-methylcyclopentyl]-2-{[1-(methylsulfonyl)piperidin-4-yl]amino}pyrido[2,3-d]pyrimidin-7(8H)-one]
- Ki (CDK2/Cyclin E1): 5.22 nM
- Ki (CDK6/Cyclin D1): 1.27 nM

Compound: Cn1cc(S(=O)(=O)N2CCC(Nc3ncc4ccc(=O)n([C@@H]5CCC[C@@]5(C)O)c4n3)CC2)cn1 (single isomer, unassigned) [Example 82, (−)-8-[(1R*,2R*)-2-hydroxy-2-methylcyclopentyl]-2-({1-[(1-methyl-1H-pyrazol-4-yl)sulfonyl]piperidin-4-yl}amino)pyrido[2,3-d]pyrimidin-7(8H)-one]
- Ki (CDK2/Cyclin E1): 0.1 nM
- Ki (CDK6/Cyclin D1): 1.21 nM

Compound: CNS(=O)(=O)N1CCC(Nc2ncc3cc(F)c(=O)n([C@@H]4CCC[C@@]4(C)O)c3n2)CC1 (single isomer, unassigned) [Example 124, (−)-4-({6-fluoro-8-[(1R*,2R*)-2-hydroxy-2-methylcyclopentyl]-7-oxo-7,8-dihydropyrido[2,3-d]pyrimidin-2-yl}amino)-N-methylpiperidine-1-sulfonamide]
- Ki (CDK2/Cyclin E1): 0.69 nM
- Ki (CDK6/Cyclin D1): 3.84 nM

Compound: Cc1cc2cnc(NC3CCN(S(C)(=O)=O)CC3)nc2n([C@@H]2CCC[C@@H](O)C2)c1=O (single isomer, unassigned) [Example 32, (+)-8-[(1R*,3R*)-3-hydroxycyclohexyl]-6-methyl-2-{[1-(methylsulfonyl)piperidin-4-yl]amino}pyrido[2,3-d]pyrimidin-7(8H)-one]
- Ki (CDK2/Cyclin E1): 0.84 nM
- Ki (CDK6/Cyclin D1): 1.1 nM

Compound: C[C@@H]1[C@H](O)CC[C@H]1n1c(=O)ccc2cnc(NC3CCN(S(C)(=O)=O)CC3)nc21 (single isomer, unassigned) [Example 201, (−)-8-[(1R*,2S*,3R*)-3-hydroxy-2-methylcyclopentyl]-2-{[1-(methylsulfonyl)piperidin-4-yl]amino}pyrido[2,3-d]pyrimidin-7(8H)-one]
- Ki (CDK2/Cyclin E1): 0.12 nM
- Ki (CDK6/Cyclin D1): 0.85 nM

Compound: Cc1cc2cnc(NC3CCN(S(=O)(=O)C4CC4)CC3)nc2n([C@@H]2CCC[C@@]2(C)O)c1=O (single isomer, unassigned) [Example 112, (−)-2-{[1-(cyclopropylsulfonyl)piperidin-4-yl]amino}-8-[(1R*,2R*)-2-hydroxy-2-methylcyclopentyl]-6-methylpyrido[2,3-d]pyrimidin-7(8H)-one]
- Ki (CDK2/Cyclin E1): 0.12 nM
- Ki (CDK6/Cyclin D1): 1.24 nM

Compound: COCCS(=O)(=O)N1CCC(Nc2ncc3ccc(=O)n([C@@H]4CCC[C@@H]4C)c3n2)CC1 [Example 52, 2-({1-[(2-methoxyethyl)sulfonyl]piperidin-4-yl}amino)-8-[(1R,2S)-2-methylcyclopentyl]pyrido[2,3-d]pyrimidin-7(8H)-one]
- Ki (CDK2/Cyclin E1): 0.12 nM
- Ki (CDK6/Cyclin D1): 0.24 nM
